Source: patent US20230025510A1, “BIARYL ETHER-TYPE QUINAZOLINE DERIVATIVES” (DAIICHI SANKYO COMPANY, LIMITED, priority 2018, published 2023)

Experiments:
Assay type in all cases: cell-based
[1] = test system: Ba/F3-EGFR ins. ASV cells; assay: Cell proliferation suppression test (CellTiter-Glo, GI50), Ba/F3-EGFR ins. ASV; details: Mus musculus, 72 h, 3 days, N=4
Description: (§1) Cell proliferation suppression test Ba/F3-Mock, Ba/F3-EGFR WT, Ba/F3-EGFR ins. ASV, and Ba/F3-EGFR ins. SVD cell lines were cultured based on a culture medium of 10% FBS-containing RPMI 1640 supplemented with 1.5 ug/mL puromycin, and 5 ng/mL IL-3 and 100 ng/mL of EGF were further added to the culture solution for Ba/F3-Mock and Ba/F3-EGFR WT, respectively. The cells were cultured in a CO2 incubator set at 37° C., 5% CO2. Specimens prepared by dilution were seeded into 384-well tissue culture plates with Echo555 (Labcyte Inc.), and the cells were seeded thereto at 400 cells/well for Ba/F3-Mock, Ba/F3-EGFR WT, and Ba/F3-EGFR ins. SVD and at 200 cells/well for Ba/F3-EGFR ins. ASV (day 0), then they were cultured for an additional 3 days. On the day of the compound addition (day 0) and 3 days after the compound addition (day 3), ATP quantity was measured with CellTiter-Glo (registered trademark) 2.0 (Promega Corporation.), and used as an indicator of cell quantity (N=4). In the test, puromycin-free culture medium was used. Concentrations at which cell proliferation from day 0 to day 3 was inhibited by 50% (GIso) were calculated with EXCEL.

Ba/F3-Mock cells = assay: Cell proliferation suppression test (CellTiter-Glo, GI50), Ba/F3-Mock; details: Mus musculus, BaF3, 72 h, 5 ng/mL IL-3, 3 days, N=4
Description: as §1

[2] = test system: Ba/F3-EGFR ins. SVD cells; assay: Cell proliferation suppression test (CellTiter-Glo, GI50), Ba/F3-EGFR ins. SVD; details: Mus musculus, 72 h, 3 days, N=4
Description: as §1

Ba/F3-EGFR WT cells = assay: Cell proliferation suppression test (CellTiter-Glo, GI50), Ba/F3-EGFR WT; details: Mus musculus, 72 h, 100 ng/mL EGF, 3 days, N=4
Description: as §1

GI50 [1] [nM] | GI50 [2] [nM] | GI50 (Ba/F3-EGFR WT cells) [nM] | Compound | GI50 (Ba/F3-Mock cells) [nM]
11.4 | 11.3 | 320 | C=CC(=O)N1CCC(Oc2cc3c(Nc4ccc(Oc5nc(-c6cnc(OC)nc6)cs5)cc4F)ncnc3cc2OC)CC1 [Example 16, 1-(4-{[4-(2-Fluoro-4-{[4-(2-methoxypyrimidin-5-yl)-1,3-thiazol-2-yl]oxy}anilino)-7-methoxyquinazolin-6-yl]oxy}piperidin-1-yl)prop-2-en-1-one] | > 10000
17 | 18.3 | 174 | C=CC(=O)N1CCC(Oc2cc3c(Nc4ccc(Oc5nc(-c6cncc(F)c6)cs5)cc4F)ncnc3cc2OC)CC1 [Example 38, 1-(4-{[4-(2-Fluoro-4-{[4-(5-fluoropyridin-3-yl)-1,3-thiazol-2-yl]oxy}anilino)-7-methoxyquinazolin-6-yl]oxy}piperidin-1-yl)prop-2-en-1-one] | > 10000
11.8 | 9.9 | 42.4 | C=CC(=O)N1CCC(Oc2cc3c(Nc4ccc(Oc5ccn(C(=O)N[C@H](C)C(F)(F)F)n5)cc4F)ncnc3cc2OC)CC1 [Example 24, 3-{3-Fluoro-4-[(7-methoxy-6-{[1-(prop-2-enoyl)piperidin-4-yl]oxy}quinazolin-4-yl)amino]phenoxy}-N-[(2R)-1,1,1-trifluoropropan-2-yl]-1H-pyrazole-1-carboxamide] | 6470
11.9 | 19.8 | 245 | CCOc1cc2ncnc(Nc3ccc(Oc4cccc(-c5nnc(C)o5)c4)cc3F)c2cc1NC(=O)/C=C/CN[C@H]1CCOC1 [Example 52, (2E)-N-(7-Ethoxy-4-{2-fluoro-4-[3-(5-methyl-1,3,4-oxadiazol-2-yl)phenoxy]anilino}quinazolin-6-yl)-4-[(3S)-tetrahydrofuran-3-ylamino]but-2-enamide] | 2840
19.8 | 19.7 | 172 | C=CC(=O)N1CCC(Oc2cc3c(Nc4ccc(Oc5ccn(C(=O)NC6(C)CC6)n5)cc4F)ncnc3cc2OC)CC1 [Example 8, 3-{3-Fluoro-4-[(7-methoxy-6-{[1-(prop-2-enoyl)piperidin-4-yl]oxy}quinazolin-4-yl)amino]phenoxy}-N-(1-methylcyclopropyl)-1H-pyrazole-1-carboxamide] | 7160
44.8 | 29.8 | 646 | C=CC(=O)N1CCC(Oc2cc3c(Nc4ccc(Oc5nc(-c6cnc(C)c(Cl)c6)cs5)cc4F)ncnc3cc2OC)CC1 [Example 12, 1-(4-{[4-(4-{[4-(5-Chloro-6-methylpyridin-3-yl)-1,3-thiazol-2-yl]oxy}-2-fluoroanilino)-7-methoxyquinazolin-6-yl]oxy}piperidin-1-yl)prop-2-en-1-one] | > 10000
5.5 | 32.9 | 80.1 | CCOc1cc2ncnc(Nc3ccc(Oc4cccc(-c5nnc(C)o5)c4)cc3F)c2cc1NC(=O)/C=C/CN(C)C [Example 40, (2E)-4-(Dimethylamino)-N-(7-ethoxy-4-{2-fluoro-4-[3-(5-methyl-1,3,4-oxadiazol-2-yl)phenoxy]anilino}quinazolin-6-yl)but-2-enamide] | 765
11 | 16.7 | 229 | CCOc1cc2ncnc(Nc3ccc(Oc4cccc(-c5nnc(C)o5)c4)cc3F)c2cc1NC(=O)/C=C/CN[C@@H]1CCOC1 [Example 53, (2E)-N-(7-Ethoxy-4-{2-fluoro-4-[3-(5-methyl-1,3,4-oxadiazol-2-yl)phenoxy]anilino}quinazolin-6-yl)-4-[(3R)-tetrahydrofuran-3-ylamino]but-2-enamide] | 2950
8.5 | 4.1 | 369 | COc1cc2ncnc(Nc3ccc(Oc4nn(CC(=O)NC(C)(C)C)cc4F)cc3Cl)c2cc1NC(=O)/C=C/CN1CC[C@H](F)C1 [Example 57, (2E)-N-{4-[4-({1-[2-(tert-Butylamino)-2-oxoethyl]-4-fluoro-1H-pyrazol-3-yl}oxy)-2-chloroanilino]-7-methoxyquinazolin-6-yl}-4-[(3S)-3-fluoropyrrolidin-1-yl]but-2-enamide] | 5090
12.4 | 12.1 | 290 | C=CC(=O)N1CCC(Oc2cc3c(Nc4ccc(Oc5ccn(-c6ccc(C)nc6)n5)cc4F)ncnc3cc2OC)CC1 [Example 28, 1-(4-{[4-(2-Fluoro-4-{[1-(6-methylpyridin-3-yl)-1H-pyrazol-3-yl]oxy}anilino)-7-methoxyquinazolin-6-yl]oxy}piperidin-1-yl)prop-2-en-1-one] | 8370
12.4 | 10.9 | 110 | C=CC(=O)N1CCC(Oc2cc3c(Nc4ccc(Oc5ccn(C(=O)NC(C)(CF)CF)n5)cc4F)ncnc3cc2OC)CC1 [Example 23, N-(1,3-Difluoro-2-methylpropan-2-yl)-3-{3-fluoro-4-[(7-methoxy-6-{[1-(prop-2-enoyl)piperidin-4-yl]oxy}quinazolin-4-yl)amino]phenoxy}-1H-pyrazole-1-carboxamide] | 5530
10.3 | 8 | 186 | C=CC(=O)N1CCC(Oc2cc3c(Nc4ccc(Oc5cccc(-c6nnc(C)o6)c5)cc4F)ncnc3cc2OC)CC1 [Example 17, 1-{4-[(4-{2-Fluoro-4-[3-(5-methyl-1,3,4-oxadiazol-2-yl)phenoxy]anilino}-7-methoxyquinazolin-6-yl)oxy]piperidin-1-yl}prop-2-en-1-one] | 8220
43.9 | 210 | 733 | COc1cc2ncnc(Nc3ccc(Oc4nc(-c5nnc(C6CC6)o5)cs4)cc3F)c2cc1NC(=O)/C=C/CN1CC[C@@H](F)C1 [Example 62, (2E)-N-[4-(4-{[4-(5-Cyclopropyl-1,3,4-oxadiazol-2-yl)-1,3-thiazol-2-yl]oxy}-2-fluoroanilino)-7-methoxyquinazolin-6-yl]-4-[(3R)-3-fluoropyrrolidin-1-yl]but-2-enamide] | 1490
10.3 | 6.7 | 252 | COc1cc2ncnc(Nc3ccc(Oc4nn(CC(=O)NC(C)(C)C)cc4F)cc3F)c2cc1NC(=O)/C=C/CN1CCC(F)C1 (racemic) [Example 58, rac-(2E)-N-{4-[4-({1-[2-(tert-Butylamino)-2-oxoethyl]-4-fluoro-1H-pyrazol-3-yl}oxy)-2-fluoroanilino]-7-methoxyquinazolin-6-yl}-4-(3-fluoropyrrolidin-1-yl)but-2-enamide] | 4010
10.5 | 5.7 | 163 | C=CC(=O)N1CCC(Oc2cc3c(Nc4ccc(Oc5nc(-c6ccc(C)nc6)cs5)cc4F)ncnc3cc2OC)CC1 [Example 37, 1-(4-{[4-(2-Fluoro-4-{[4-(6-methylpyridin-3-yl)-1,3-thiazol-2-yl]oxy}anilino)-7-methoxyquinazolin-6-yl]oxy}piperidin-1-yl)prop-2-en-1-one] | > 10000
7.4 | 5 | 78.3 | C=CC(=O)N1CCC(Oc2cc3c(Nc4ccc(Oc5ccn(C(=O)NC(C)(C)C)n5)cc4F)ncnc3cc2OC)CC1 [Example 4, N-tert-Butyl-3-{3-fluoro-4-[(7-methoxy-6-{[1-(prop-2-enoyl)piperidin-4-yl]oxy}quinazolin-4-yl)amino]phenoxy}-1H-pyrazole-1-carboxamide] | 7610
5.1 | 17.7 | 103 | CCOc1cc2ncnc(Nc3ccc(Oc4cccc(-c5nnc(CC)o5)c4)cc3F)c2cc1NC(=O)/C=C/CN(C)C [Example 42, (2E)-4-(Dimethylamino)-N-(7-ethoxy-4-{4-[3-(5-ethyl-1,3,4-oxadiazol-2-yl)phenoxy]-2-fluoroanilino}quinazolin-6-yl)but-2-enamide] | 764
11.9 | 12.7 | 162 | C=CC(=O)N1CCC(Oc2cc3c(Nc4ccc(Oc5ccn(-c6ccc(F)nc6)n5)cc4F)ncnc3cc2OC)CC1 [Example 32] | > 10000
8.2 | 27 | 114 | CCc1nnc(-c2cccc(Oc3ccc(Nc4ncnc5cc(OC)c(NC(=O)/C=C/CN(C)C)cc45)c(F)c3)c2)o1 [Example 41, (2E)-4-(Dimethylamino)-N-(4-{4-[3-(5-ethyl-1,3,4-oxadiazol-2-yl)phenoxy]-2-fluoroanilino)-7-methoxyquinazolin-6-yl)but-2-enamide] | 841
12.2 | 12.2 | 158 | C=CC(=O)N1CCC(Oc2cc3c(Nc4ccc(Oc5cccc(-c6nnc(C)o6)c5)cc4F)ncnc3cc2OCC)CC1 [Example 18, 1-{4-[(7-Ethoxy-4-{2-fluoro-4-[3-(5-methyl-1,3,4-oxadiazol-2-yl)phenoxy]anilino}quinazolin-6-yl)oxy]piperidin-1-yl}prop-2-en-1-one] | 4660
